Data: the supplement of paper PMC10307832

Key:
Assay in all cases: relative viability (nuclei count vs DMSO), 5 days (fraction); higher = more cells survive
NCI-H1437 = system: NCI-H1437
Summary of the method: (§1)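 Medians of duplicate plates are given as relative viability. That measure is the nuclei count in treated wells divided by the count in vehicle wells. Counts were taken on 4× images of lung cancer cell lines in 1536-well plates, 5 days after pin-tool dosing the day after seeding with one drug alone or a fixed anchor-drug dose plus five library-drug doses (not always all listed) in √10 steps.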

NCI-H2342 = system: NCI-H2342
Summary of the method: as §1

NCI-H460 = system: NCI-H460
Summary of the method: as §1

NCI-H838 = system: NCI-H838
Summary of the method: as §1

NCI-H520 = system: NCI-H520
Summary of the method: as §1

NCI-H596 = system: NCI-H596
Summary of the method: as §1

EKVX = system: EKVX
Summary of the method: as §1

NCI-H1650 = system: NCI-H1650
Summary of the method: as §1

NCI-H358 = system: NCI-H358
Summary of the method: as §1

NCI-H322M = system: NCI-H322M
Summary of the method: as §1

NCI-H727 = system: NCI-H727
Summary of the method: as §1

NCI-H1915 = details: first compound 0.001 µM
Summary of the method: as §1

Q: With `Cc1cn(-c2cc(NC(=O)c3ccc(C)c(Nc4nccc(-c5cccnc5)n4)c3)cc(C(F)(F)F)c2)cn1` [Nilotinib] + COc1cccc2cc(-c3nc([C@H]4CC[C@H](C(=O)O)CC4)n4ncnc(N)c34)[nH]c12 [OSI-027] (partner 0.5 µM) as the molecule, how does the relative viability (NCI-H1437; first compound 0.001 µM) read?
A: Its relative viability is 0.826.

Q: What about the relative viability (NCI-H1437; first compound 0.003162 µM) of the same molecule?
A: The relative viability was 0.815.

Q: What about the relative viability (NCI-H1437; first compound 0.01 µM) of the same molecule?
A: Its relative viability is 0.876.

Q: What about the relative viability (NCI-H1437; first compound 0.03162 µM) of the same molecule?
A: Its relative viability is 0.619.

Q: And the relative viability (NCI-H1437; first compound 0.1 µM)?
A: Its relative viability is 0.902.

Q: What about the relative viability (NCI-H2342; first compound 0.001 µM) of the same molecule?
A: Its relative viability is 0.605.

Q: What about the relative viability (NCI-H2342; first compound 0.003162 µM) of the same molecule?
A: Its relative viability is 0.618.

Q: And the relative viability (NCI-H2342; first compound 0.01 µM)?
A: Its relative viability is 0.558.

Q: What about the relative viability (NCI-H2342; first compound 0.03162 µM) of the same molecule?
A: Its relative viability is 0.536.

Q: What about the relative viability (NCI-H2342; first compound 0.1 µM) of the same molecule?
A: The relative viability was 0.518.

Q: What about the relative viability (NCI-H460; first compound 0.001 µM) of the same molecule?
A: The relative viability was 0.367.

Q: And the relative viability (NCI-H460; first compound 0.003162 µM)?
A: Its relative viability is 0.2.

Q: And the relative viability (NCI-H460; first compound 0.01 µM)?
A: Its relative viability is 0.327.

Q: What about the relative viability (NCI-H460; first compound 0.03162 µM) of the same molecule?
A: The relative viability was 0.255.

Q: What about the relative viability (NCI-H460; first compound 0.1 µM) of the same molecule?
A: Its relative viability is 0.0921.

Q: And the relative viability (NCI-H838; first compound 0.001 µM)?
A: Its relative viability is 0.427.

Q: What about the relative viability (NCI-H838; first compound 0.003162 µM) of the same molecule?
A: The relative viability was 0.381.

Q: What about the relative viability (NCI-H838; first compound 0.01 µM) of the same molecule?
A: The relative viability was 0.377.

Q: And the relative viability (NCI-H838; first compound 0.03162 µM)?
A: The relative viability was 0.35.

Q: What about the relative viability (NCI-H838; first compound 0.1 µM) of the same molecule?
A: Its relative viability is 0.429.

Q: And the relative viability (NCI-H520; first compound 0.001 µM)?
A: The relative viability was 0.269.

Q: What about the relative viability (NCI-H520; first compound 0.003162 µM) of the same molecule?
A: The relative viability was 0.279.

Q: And the relative viability (NCI-H520; first compound 0.01 µM)?
A: The relative viability was 0.325.

Q: What about the relative viability (NCI-H520; first compound 0.03162 µM) of the same molecule?
A: Its relative viability is 0.281.

Q: And the relative viability (NCI-H520; first compound 0.1 µM)?
A: Its relative viability is 0.276.

Q: And the relative viability (NCI-H596; first compound 0.001 µM)?
A: The relative viability was 0.725.

Q: And the relative viability (NCI-H596; first compound 0.003162 µM)?
A: The relative viability was 0.655.

Q: What about the relative viability (NCI-H596; first compound 0.01 µM) of the same molecule?
A: The relative viability was 0.57.

Q: What about the relative viability (NCI-H596; first compound 0.03162 µM) of the same molecule?
A: Its relative viability is 0.306.

Q: And the relative viability (NCI-H596; first compound 0.1 µM)?
A: The relative viability was 0.415.

Q: And the relative viability (EKVX; first compound 0.001 µM)?
A: Its relative viability is 0.541.

Q: What about the relative viability (EKVX; first compound 0.003162 µM) of the same molecule?
A: Its relative viability is 0.719.

Q: And the relative viability (EKVX; first compound 0.01 µM)?
A: The relative viability was 0.904.

Q: What about the relative viability (EKVX; first compound 0.03162 µM) of the same molecule?
A: Its relative viability is 0.665.

Q: What about the relative viability (EKVX; first compound 0.1 µM) of the same molecule?
A: Its relative viability is 0.671.

Q: What about the relative viability (NCI-H1650; first compound 0.001 µM) of the same molecule?
A: Its relative viability is 0.691.

Q: What about the relative viability (NCI-H1650; first compound 0.003162 µM) of the same molecule?
A: Its relative viability is 0.792.

Q: And the relative viability (NCI-H1650; first compound 0.01 µM)?
A: The relative viability was 0.569.

Q: What about the relative viability (NCI-H1650; first compound 0.03162 µM) of the same molecule?
A: The relative viability was 0.464.

Q: What about the relative viability (NCI-H1650; first compound 0.1 µM) of the same molecule?
A: Its relative viability is 0.426.

Q: What about the relative viability (NCI-H358; first compound 0.001 µM) of the same molecule?
A: Its relative viability is 0.708.

Q: And the relative viability (NCI-H358; first compound 0.003162 µM)?
A: The relative viability was 1.09.

Q: What about the relative viability (NCI-H358; first compound 0.01 µM) of the same molecule?
A: The relative viability was 0.655.

Q: What about the relative viability (NCI-H358; first compound 0.03162 µM) of the same molecule?
A: Its relative viability is 0.666.

Q: What about the relative viability (NCI-H358; first compound 0.1 µM) of the same molecule?
A: The relative viability was 0.252.

Q: And the relative viability (NCI-H322M; first compound 0.001 µM)?
A: Its relative viability is 0.516.

Q: And the relative viability (NCI-H322M; first compound 0.003162 µM)?
A: The relative viability was 0.436.

Q: And the relative viability (NCI-H322M; first compound 0.01 µM)?
A: Its relative viability is 0.422.

Q: And the relative viability (NCI-H322M; first compound 0.03162 µM)?
A: The relative viability was 0.384.

Q: And the relative viability (NCI-H322M; first compound 0.1 µM)?
A: Its relative viability is 0.481.

Q: And the relative viability (NCI-H727; first compound 0.001 µM)?
A: Its relative viability is 0.57.

Q: What about the relative viability (NCI-H727; first compound 0.003162 µM) of the same molecule?
A: The relative viability was 0.477.

Q: And the relative viability (NCI-H727; first compound 0.01 µM)?
A: Its relative viability is 0.697.

Q: What about the relative viability (NCI-H727; first compound 0.03162 µM) of the same molecule?
A: Its relative viability is 0.44.

Q: What about the relative viability (NCI-H727; first compound 0.1 µM) of the same molecule?
A: Its relative viability is 0.344.

Q: What about the relative viability (NCI-H1915) of the same molecule?
A: Its relative viability is 0.552.
